Reference: US12233073B2, “Skin care formulations and skin cancer treatment” (Regents of the University of Minnesota, priority 2017, dated 2025)
Where two headings read alike, the source gives them in different places.

Experiments:
[1] = system: antioxidant response element (ARE) pathway; experiment: Activation of the antioxidant response element (ARE) pathway; type: cell-based; conditions: for Rating (ARE): third rating in cell
Method: (§1) Higher elastin and collagen activity is indicative of anti-wrinkling or anti-aging effects. Activation of the antioxidant response element (ARE) pathway was also evaluated. The NF-E2-related factor (Nrf2) is a critical transcription factor in oxidative stress signaling. Nrf2 binds to the ARE and serves as a master regulator in cellular defense pathways. The ARE pathway mediates the transcriptional induction of a battery of genes that help to protect the cells against oxidative damage. Activation of the ARE promoter leads to more endogenous antioxidants and cell detoxification.

[2] = system: nuclear factor kappa B (NF-κB) pathway; experiment: Cell-based assay of the nuclear factor kappa B (NF-κB) pathway; conditions: for Rating (inhibition of NF-κB): one rating per compound; for inhibition at 100 µg/mL / inhibition at 50 µg/mL / inhibition at 10 µg/mL: read-out: % inhibition of NF-κB
Method: The effect of adding anti-aging and/or anti-wrinkling compounds to the skin care formulation of EXAMPLE 18 on nuclear factor kappa B (NF-κB) mediated-inflammation was evaluated.
A cell-based assay was performed to determine the effective of each of these compounds. The assay involved the effect of each compound on the nuclear factor kappa B (NF-κB) pathway. The inhibition of NF-κB is indicative of a protective effect against aging and wrinkling.

elastin = experiment: Induction of elastin; type: cell-based; conditions: for Rating (Elastin): first rating in cell
Method: as §1

UV-induced ROS = experiment: Inhibition of the production of UV-induced reactive oxygen species (ROS); type: cell-based; conditions: for inhibition at 10 µg/mL: read-out: % inhibition of UV-induced ROS
Method: The effect of the compounds of EXAMPLE 20 on inhibition of the production of reactive oxygen species (ROS), which can damage skin cells, was evaluated.

collagen 1A = experiment: Induction of collagen 1A; type: cell-based; conditions: for Rating (Collagen 1A): second rating in cell
Method: as §1

Structure (SMILES) | Rating (ARE) [1] | % inhibition of NF-κB ([2]; final dose 10 μg/ml) | % inhibition of NF-κB ([2]; final dose 50 μg/ml) | Rating (inhibition of NF-κB) [2] | inhibition at 100 µg/mL [2] [%] | Rating (Elastin) (elastin) | inhibition at 10 µg/mL (UV-induced ROS) [%] | Rating (Collagen 1A) (collagen 1A) | fold induction at 10 µg/mL ([1]; final dose 10 μg/ml) | fold induction at 50 µg/mL ([1]; final dose 50 μg/ml) | fold induction at 100 µg/mL ([1]; final dose 100 μg/ml) | inhibition at 50 µg/mL ([2]; final dose 50 μg/ml) [%] | inhibition at 100 µg/mL ([2]; final dose 100 μg/ml) [%] | fold induction at 10 µg/mL (elastin; final dose 10 μg/ml) | fold induction at 50 µg/mL (elastin; final dose 50 μg/ml) | fold induction at 100 µg/mL (elastin; final dose 100 μg/ml) | inhibition at 10 µg/mL (UV-induced ROS; final dose 10 μg/ml) [%] | fold induction at 10 µg/mL (collagen 1A; final dose 10 μg/ml) | fold induction at 50 µg/mL (collagen 1A; final dose 50 μg/ml) | fold induction at 100 µg/mL (collagen 1A; final dose 100 μg/ml) | further results
O=c1c(O)c(-c2ccc(O)c(O)c2)oc2cc(O)c(O)c(O)c12 [HI-9, quercetagetin] | none | none | none | none and ** (medium activity (31-55%)) | 20 | none | > 70 | *** (high activity (56-75%)) |  |  |  |  |  |  |  |  |  |  |  |  | 
O=C1C[C@@H](c2ccc(O)cc2)Oc2cc(O)cc(O)c21 [HI-5, naringenin] | **** (very high activity (>76%)) | none |  | none |  |  |  | * (low activity (20-30%)) | 2 | 2 | 2 | 56 | 62 | 1.5 | < 1.3 | 1.5 | ~25 | < 1.3 | < 1.3 | 1.3 | 
Oc1cc(O)c2cc(O)c(-c3cc(O)c(O)c(O)c3)[o+]c2c1 [HI-2, delphiniden] | none | none | none | none |  | none |  | none |  |  |  |  |  |  |  |  |  |  |  |  | ARE activation ([1]; final dose 10 μg/ml): — (The dash (—) indicates <1.3x or no induction); ARE activation ([1]; final dose 50 μg/ml): — (The dash (—) indicates <1.3x or no induction); ARE activation ([1]; final dose 100 μg/ml): 1.7x; % inhibition of NF-κB ([2]; final dose 100 μg/ml): none; Elastin induction (elastin; final dose 10 μg/ml): 1.5x; Elastin induction (elastin; final dose 50 μg/ml): — (The dash (—) indicates <1.3x or no induction); Elastin induction (elastin; final dose 100 μg/ml): — (The dash (—) indicates <1.3x or no induction); % inhibition of UV-induced ROS (UV-induced ROS; final dose 10 μg/ml): >70%; Collagen 1A induction (collagen 1A; final dose 10 μg/ml): — (The dash (—) indicates <1.3x or no induction); Collagen 1A induction (collagen 1A; final dose 50 μg/ml): — (The dash (—) indicates <1.3x or no induction); Collagen 1A induction (collagen 1A; final dose 100 μg/ml): — (The dash (—) indicates <1.3x or no induction)
O=c1c(-c2ccc(O)c(O)c2)coc2cc(O)ccc12 [HI-1, 7,3,4′-trihydroxyisoflavone] |  | none |  | none |  |  |  | **, **, N/A (medium activity (31-55%)) | < 1.3 | 3 | 5 | 14 | 40 | 1.5 | 2 | < 1.3 | > 70 | 1.5 | 3 | < 1.3 | 
O=C(/C=C/c1ccc(O)c(O)c1)OCCc1ccccc1 [HI-6, caffeic acid phenylethyl ester] |  |  |  | *** (high activity (56-75%)) | > 90 | none, none, N/A | > 70 | none, none, N/A | < 1.3 | < 1.3 | < 1.3 |  |  | < 1.3 | < 1.3 | 2 |  | < 1.3 | < 1.3 | < 1.3 | inhibition at 10 µg/mL [2]: 64%; inhibition at 50 µg/mL [2]: > 90%
C=CCc1ccc(O)c(-c2cc(CC=C)ccc2O)c1 [HI-3, magnolol] | none |  |  | **** (very high activity (>76%)) | > 90 | none | ~10 | none | < 1.3 | < 1.3 | < 1.3 |  |  | < 1.3 | 4 | 2.8 |  | < 1.3 | < 1.3 | < 1.3 | Cytotoxicity remark in Rating column ([2]; NF-κB cell-based assay): slightly cytotoxic; inhibition at 10 µg/mL [2]: > 90%; inhibition at 50 µg/mL [2]: > 90%
O=c1cc(-c2ccc(O)c(O)c2)oc2cc(O)cc(O)c12 [HI-11, luteolin] | ****, ****, **** (very high activity (>76%)) |  |  | ** (medium activity (31-55%)) |  |  |  | ****, ****, **** (very high activity (>76%)) | 1.5 | 5 | 2 | > 90 | > 90 | 1.8 | < 1.3 | < 1.3 | > 70 | 2 | < 1.3 | < 1.3 | inhibition at 10 µg/mL ([2]; final dose 10 μg/ml): 54%
O=c1c(-c2ccc(O)cc2)coc2cc(O)c(O)cc12 [HI-4, 6,7,4′-trihydroxyisoflavone] | ****, ****, **** (very high activity (>76%)) | none | none | none |  |  |  | ****, ****, **** (very high activity (>76%)) | 2 | < 1.3 | < 1.3 |  |  | 2 | 2 | < 1.3 | > 70 | 2 | < 1.3 | < 1.3 | % inhibition of NF-κB ([2]; final dose 100 μg/ml): none
O=c1c(O)c(-c2ccc(O)cc2)oc2c(O)c(O)cc(O)c12 [HI-12, herbacetin] | none | none | none | none |  |  |  | none | < 1.3 | < 1.3 | < 1.3 |  | 49 | 2 | < 1.3 | 2 | ~50 | < 1.3 | < 1.3 | < 1.3 | 
O=c1c(O)c(-c2cc(O)c(O)c(O)c2)oc2cc(O)cc(O)c12 [HI-8, myricetin] | none | none |  | none |  |  |  | none | < 1.3 | < 1.3 | < 1.3 | 39 | 44 | < 1.3 | 3 | 2.8 | > 70 | < 1.3 | < 1.3 | < 1.3 | 
